Reference: PMC10307063, “Bioprospection of Selected Plant Secondary Metabolites as Modulators of the Proteolytic Activity of Plasmodium falciparum Plasmepsin V” (BioMed Research International, 2023)
Where a SMILES comes first, the peptide text is derived from it. [ ]: non-standard residue; d: D form. The star is where a group is joined. Sta = CC(C)C[C@H](N)[C@@H](O)CC(=O)O; Isovaleryl = CC(C)CC(=O)*

Experiments:
[1] = biological target: T1, Plasmodium falciparum plasmepsin V (PfPMV) (Plasmodium falciparum, UniProt Q8I6Z5); assay: casein proteolysis assay with recombinant enzyme (A280), Lineweaver-Burk kinetics; assay type: biochemical
T1 construct: gene PMV; Trx-PfPMVp37

[2] = biological target: T1, Plasmodium falciparum plasmepsin V (PfPMV); assay: casein proteolysis assay with recombinant enzyme (A280); assay type: biochemical

T1 sequence (Q8I6Z5 whole entry): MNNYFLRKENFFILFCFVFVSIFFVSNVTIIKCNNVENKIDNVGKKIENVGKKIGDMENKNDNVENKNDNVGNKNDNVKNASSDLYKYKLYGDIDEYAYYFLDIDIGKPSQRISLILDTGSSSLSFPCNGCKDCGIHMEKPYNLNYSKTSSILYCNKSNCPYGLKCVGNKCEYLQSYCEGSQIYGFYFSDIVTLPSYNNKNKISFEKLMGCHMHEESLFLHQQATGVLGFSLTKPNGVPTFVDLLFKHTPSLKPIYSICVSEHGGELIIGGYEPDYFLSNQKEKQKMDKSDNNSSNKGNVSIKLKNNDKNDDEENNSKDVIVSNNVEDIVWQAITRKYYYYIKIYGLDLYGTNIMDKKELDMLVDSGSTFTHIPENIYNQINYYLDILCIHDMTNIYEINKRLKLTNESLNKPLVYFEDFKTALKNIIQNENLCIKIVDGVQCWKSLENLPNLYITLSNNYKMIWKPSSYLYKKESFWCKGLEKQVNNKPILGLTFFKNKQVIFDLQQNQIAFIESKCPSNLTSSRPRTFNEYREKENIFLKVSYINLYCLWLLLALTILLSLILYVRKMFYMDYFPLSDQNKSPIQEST

Compound | IC50 [1] [µM] | IC50 [2] [µM]
O=c1c(O)c(-c2ccc(O)cc2)oc2cc(O)cc(O)c12 [kaempferol] | 22.4 | 
CC(C)CC(=O)N[C@H](C(=O)N[C@H](C(=O)N[C@@H](CC(C)C)[C@@H](O)CC(=O)N[C@@H](C)C(=O)N[C@@H](CC(C)C)[C@@H](O)CC(=O)O)C(C)C)C(C)C [pepstatin] (Isovaleryl-VV[Sta]A[Sta]-OH) |  | 62.6
O=c1c(O)c(-c2ccc(O)c(O)c2)oc2cc(O)cc(O)c12 [quercetin] | 53.1 | 
CC(C)=CC[C@@H](O)C1=CC(=O)c2c(O)ccc(O)c2C1=O [shikonin] | 43.3 | 
